Article PMC7576996, “Antiparasitic Behavior of Trifluoromethylated Pyrazole 2-Amino-1,3,4-thiadiazole Hybrids and Their Analogues: Synthesis and Structure-Activity Relationship” (Frontiers in Pharmacology, 2020)

Columns and labels:
[1] = tested on: promastigote form of Leishmania amazonensis; assay: Antiproliferative assay, promastigote form of Leishmania amazonensis (XTT, 72 h); type: cell-based; details: for SI L-M, selectivity index (Macrophages CC50/L. amazonensis IC50): J774A1 vs promastigotes; for SI L-E, selectivity index (Epithelial CC50/L. amazonensis IC50): LLCMK2 vs promastigotes; for IC50: Leishmania amazonensis, promastigote form, 72 h, mean ± standard deviation, read-out: L. amazonensis IC50
Method: (§1) All the novel trifluoromethylated pyrazoles derivatives 2a–f, 3a–f, and 4a–f were evaluated against the promastigote form of L. amazonensis and the epimastigote form of T. cruzi. The results are reported as the concentration causing a 50% inhibition in cell growth (IC50). Additionally, the toxicity of compounds was evaluated against two different cell lines: epithelial cell LLCMK2 and macrophages J774A1. The antiproliferative and cytotoxic activities are shown in Table 2 , as well as the calculated selectivity index (SI).
(§2) 2.4. Antiproliferative activity
(§3) Promastigotes forms of Leishmania amazonensis (strain WHOM/ BR/75/JOSEFA) were
(§4) cultured in Warren medium (brain heart infusion, hemin, and folic acid; pH 7.4) supplemented with
(§5) 10% fetal bovine serum (FBS) at 25 °C. Epimastigote forms of Trypanosoma cruzi (Y strain) were
(§6) cultured in LIT medium (liver infusion tryptose; hemim, and folic acid; pH 7.4) supplemented with
(§7) Cytotoxicity activity was determined in LLCMK2 (epithelial cells of kidney of Macaca
(§8) mulatta) cells and J774A1 macrophages. LLCMK2 (epithelial cells of kidney of Macaca mulatta) cells
(§9) were cultured in Dulbecco’s modified Eagle’s medium (DMEM, pH 7.2) supplemented with 10% FBS
(§10) at 37 °C in a 5% CO2 atmosphere. J774A1 macrophages were cultured in RPMI-1640 (pH 7.2) medium
(§11) supplemented with 10% FBS at 37 °C in a 5% CO2 atmosphere.
(§12) 2.4.2. Dilution of compounds
(§13) Stock solutions of the compounds were prepared in DMSO and then diluted in the respective
(§14) medium. The groups (controls and treated) were tested with DMSO concentrations below 1%, with
(§15) 2.4.3. Antiproliferative assay
(§16) Promastigote forms (1 × 10^6 parasites/mL) were cultured in 96-well plates in the presence and
(§17) absence of different concentrations of compounds diluted in Warren medium supplemented with 10%
(§18) FBS and incubated for 72h. Epimastigote forms (1 × 10^6 parasites/mL) were cultured in 96 -well plates
(§19) in the presence and absence of different concentrations of compounds diluted in LIT medium
(§20) supplemented with 10% FBS and incubated for 96h. After treatment, the parasites were incu bated with
(§21) a solution of 2,3 -bis (2 -methoxy -4-nitro -5-sulfophenyl) -2H-tetrazolium -5-carboxanilide (XTT; 0.5
(§22) mg/mL) and phenazine methanesulfonate activator (PMS; 0.06 mg/mL) in PBS for 4h. Then, the
(§23) absorbance was read in a microplate reader (Bio Tek - Power Wave XS) at 450 nm. The percentage of
(§24) viable parasites was calculated in relation to the control in order to determine the concentration that
(§25) inhibits 50% of the protozoa (IC 50).
(§26) 2.4.4. Cytotoxicity assay
(§27) LLCMK2 cells (2.5 × 10^5 cells/mL) suspension was prepared in DMEM medium supplemented
(§28) with 10% FBS and added to 96-well plates. Then, the plates were incubated at 37 °C in a
(§29) CO2 atmosphere for 24h to obtain confluent cell growth. After incubation, cells were treated or not
(§30) with different concentrations of compounds diluted in DMEM for 72 h. Macrophage (5 × 10^5 cells/mL)
(§31) suspension was prepared in RPMI-1640 medium supplemented with 10% FBS and added to 96-well
(§32) plates. Then, the plates were incubated at 37 °C in a CO2 atmosphere for 24h to obtain confluent cell
(§33) growth. After incubation, cells were treated or not with different concentrations of compounds diluted
(§34) in RPMI-1640 for 48h. After treatment, medium was removed and cells were incubated with MTT (2
(§35) mg/mL) for 4h. Then, DMSO was added for solubilization of the formazan and analyzed with a reading

[2] = tested on: epimastigote form of Trypanosoma cruzi; assay: Antiproliferative assay, epimastigote form of Trypanosoma cruzi (XTT, 96 h); type: cell-based; details: for SI T-M, selectivity index (Macrophages CC50/T. cruzi IC50): J774A1 vs epimastigotes; for SI T-E, selectivity index (Epithelial CC50/T. cruzi IC50): LLCMK2 vs epimastigotes; for IC50: Trypanosoma cruzi, epimastigote form, 96 h, mean ± standard deviation, read-out: T. cruzi IC50
Method: as §1, §2, §3, §4, §5, §6, §7, §8, §9, §10, §11, §12, §13, §14, §15, §16, §17, §18, §19, §20, §21, §22, §23, §24, §25, §26, §27, §28, §29, §30, §31, §32, §33, §34, §35

[3] = Cytotoxicity assay in LLCMK2 epithelial cells (MTT, 72 h); type: cell-based; details: Macaca mulatta, LLCMK2 kidney epithelial cells, pH 7.2, LLCMK2, 50% inhibition of growth
Method: as §1
(§36) 2.4. Antiproliferative activity […]
as §7, §8, §9, §10, §11, §12, §13, §14
(§37) 2.4.3. Antiproliferative assay […]
as §26, §27, §28, §29, §30, §31, §32, §33, §34, §35
(§38) microplate reader (BIO-TEK PowerWave XS spectrophotometer) at 392 nm. The percentage of viable
(§39) cells was calculated in relation to the control to determine the cytotoxic concentration to 50% of the […]

[4] = Cytotoxicity assay in J774A1 macrophages (MTT, 48 h); type: cell-based; details: mouse, pH 7.2, J774A1, 50% inhibition of growth
Method: as §1, §36, §7, §8, §9, §10, §11, §12, §13, §14, §37, §26, §27, §28, §29, §30, §31, §32, §33, §34, §35, §38, §39

Row | IC50 [2] [µM] | melting point [°C] | Compound | SI L-M, selectivity index (Macrophages CC50/L. amazonensis IC50) [1] | SI L-E, selectivity index (Epithelial CC50/L. amazonensis IC50) [1] | IC50 [1] [µM] | SI T-M, selectivity index (Macrophages CC50/T. cruzi IC50) [2] | SI T-E, selectivity index (Epithelial CC50/T. cruzi IC50) [2] | CC50 at 72 h [3] [µM] | CC50 at 48 h [4] [µM]
1 | 19.1 ± 0.9 | – | COc1ccc(-c2c(C=NN=C(N)SC)c(C(F)(F)F)nn2-c2ccccc2)cc1 [3f] | 8.65 | 7.13 | 14.2 ± 1.1 | 6.43 | 5.30 | 101 ± 2.4 | 123 ± 3.1
2 | 41.6 ± 5.3 | 243.3 | Nc1nnc(-c2c(C(F)(F)F)nn(-c3ccccc3)c2-c2ccc(F)cc2)s1 [4b, 4-[(2-amino)-1,3,4-thiadiazo-5-yl]-3-trifluoromethyl-5-(4-fluorophenyl)-1-phenyl-1H-pyrazole] | 6.17 | 3.63 | 40.4 ± 3.2 | 5.99 | 3.52 | 146 ± 5.4 | 249 ± 6.2
3 | 69.3 ± 2.9 | 221.18 | NC(=S)NN=Cc1c(C(F)(F)F)nn(-c2ccccc2)c1-c1ccc(F)cc1 [2b, 4-[(2-carbamothioyl-hydrazinylidene)methyl]-3-trifluoromethyl-5-(4-fluorophenyl)-1-phenyl-1H-pyrazole] | 4.09 | 6.97 | 49.6 ± 3.8 | 2.92 | 4.99 | 345.7 ± 2.6 | 203 ± 5.9
4 | 22.8 ± 1.2 | 239.1 | COc1ccc(-c2c(-c3nnc(N)s3)c(C(F)(F)F)nn2-c2ccccc2)cc1 [4f, 4-[(2-amino)-1,3,4-thiadiazo-5-yl]-3-trifluoromethyl-5-(4-methoxyphenyl)-1-phenyl-1H-pyrazole] | 9.14 | 7.83 | 17.1 ± 1.6 | 6.86 | 5.87 | 134 ± 5.1 | 156 ± 4.1
5 | 62.4 ± 3.8 | 165.65 | CSC(N)=NN=Cc1c(C(F)(F)F)nn(-c2ccccc2)c1-c1ccccc1 [3e] | 7.30 | 4.53 | 44.7 ± 5 | 5.23 | 3.25 | 202 ± 6.2 | 326 ± 4.5
6 | 29 ± 2.7 | 236.7 | Nc1nnc(-c2c(C(F)(F)F)nn(-c3ccccc3)c2-c2ccc([N+](=O)[O-])cc2)s1 [4a, 4-[(2-amino)-1,3,4-thiadiazo-5-yl]-3-trifluoromethyl-5-(4-nitrophenyl)-1-phenyl-1H-pyrazole] | 14.56 | 10.78 | 19.6 ± 1.5 | 9.84 | 7.29 | 211 ± 3.1 | 285 ± 5.6
7 | 24.1 ± 0.8 | 190.7 | CSC(N)=NN=Cc1c(C(F)(F)F)nn(-c2ccccc2)c1-c1ccc([N+](=O)[O-])cc1 [3a] | 12.10 | 9.64 | 18.3 ± 2.4 | 9.19 | 7.32 | 176 ± 5.9 | 221 ± 3.1
8 | 40.5 ± 3.1 | 224.9 | Nc1nnc(-c2c(C(F)(F)F)nn(-c3ccccc3)c2-c2ccc(Cl)cc2)s1 [4c, 4-[(2-amino)-1,3,4-thiadiazo-5-yl]-5-(4-chlorophenyl)-3-trifluoromethyl-1-phenyl-1H-pyrazole] | 10.67 | 9.68 | 36.1 ± 2.8 | 9.51 | 8.63 | 350 ± 6.1 | 385 ± 5.8
9 | 30.3 ± 5.2 | – | NC(=S)NN=Cc1c(C(F)(F)F)nn(-c2ccccc2)c1-c1ccc(Br)cc1 [2d, 5-(4-bromophenyl)-4-[(2-carbamothioyl-hydrazinylidene)methyl]-3-trifluoromethyl-1-phenyl-1H-pyrazole] | 8.98 | 7.85 | 18.9 ± 1.1 | 5.60 | 4.89 | 148 ± 6.9 | 170 ± 7.2
10 | 83.1 ± 5.3 | 211.27 | NC(=S)NN=Cc1c(C(F)(F)F)nn(-c2ccccc2)c1-c1ccccc1 [2e, 4-[(2-carbamothioyl-hydrazinylidene)methyl]-3-trifluoromethyl-1,5-diphenyl-1H-pyrazole] | 6.47 | 6.39 | 61.7 ± 2.9 | 4.81 | 4.75 | 394 ± 7.1 | 400 ± 6.6
11 | 65.6 ± 2.9 | – | Nc1nnc(-c2c(C(F)(F)F)nn(-c3ccccc3)c2-c2ccccc2)s1 [4e, 4-[(2-amino)-1,3,4-thiadiazo-5-yl]-3-trifluoromethyl-1,5-diphenyl-1H-pyrazole] | 6.49 | 5.04 | 52.4 ± 3.5 | 5.18 | 4.03 | 264 ± 3.2 | 340 ± 5.2
12 | 29.7 ± 2.6 | 212.65 | COc1ccc(-c2c(C=NNC(N)=S)c(C(F)(F)F)nn2-c2ccccc2)cc1 [2f, 4-[(2-carbamothioyl-hydrazinylidene)methyl]-3-trifluoromethyl-5-(4-methoxyphenyl)-1-phenyl-1H-pyrazole] | 8.04 | 6.91 | 22.4 ± 3 | 6.06 | 5.21 | 155 ± 2.6 | 180 ± 4.7
13 | 39.9 ± 3.2 | 145.5 | CSC(N)=NN=Cc1c(C(F)(F)F)nn(-c2ccccc2)c1-c1ccc(F)cc1 [3b] | 5.90 | 3.48 | 34.3 ± 4.7 | 5.07 | 2.99 | 119 ± 3 | 202 ± 3.4
14 | 25.7 ± 2.5 | – | CSC(N)=NN=Cc1c(C(F)(F)F)nn(-c2ccccc2)c1-c1ccc(Br)cc1 [3d] | 10.55 | 8.20 | 13.9 ± 0.6 | 5.71 | 4.44 | 114 ± 3.8 | 147 ± 3.6
